We go through 1 molecule from US20060147569A1, “Anti-depression formulations” (priority 2005, published 2006).

Structures are written as SMILES. Structures can show the parent of a compound that is named as a salt.

In the assay the test system is Male ICR mice. Nature of the assay: Tail suspension test (TST) in mice. It is filed as in vivo. The note with it: oral once daily, 26 mg/kg. From the text: A major symptom of depression is decrease of motivational behaviors. In the TST model, the tail-suspended mice struggle in attempt to overcome the abnormal body positions, which is a motivational behavior. After a period of time, the mice started to show occasional immobility, representing a “despair” mental state. The immobility is regarded as “failure to adapt to stress” and can be served as an indicator of the level of depression. The effectiveness of anti-depression drugs could be derived by measuring the duration of immobility after the mice had been tail-suspended for a period of time. The model is sensitive to anti-depression drugs and is widely adopted as a means to screen such drugs. (Steru L, Chermat R, Thierry B, Simon P. 1985.)
Male ICR mice (26±2 g) were used. The mice were housed in polycarbonate cages. […]
The animals were deprived of food but not water for 1.5 h prior to drug administration of. […] The volume of the suspension administered was based on body weight measured immediately prior to each dose, respectively. […]
The tail suspension test was based on the method of Steru (Steru, et al., 1985). […] The duration of immobility time was recorded during the final 4 min interval of the test. […]
All data were expressed as mean±SEM, and analyzed using one-way analysis of variance (ANOVA). […]

On to `CNCCC(Oc1ccc(C(F)(F)F)cc1)c1ccccc1` (centres unmarked) [Fluoxetine, Fluoxetine Hydrochloride], for which the Duration of immobility was determined as 23.2 ± 5.2 s (3 days) and 28.8 ± 6.4 s (7 days).
